The values that follow come from ChEMBL document CHEMBL5291721, “A preclinical secondary pharmacology resource illuminates target-adverse drug reaction associations of marketed drugs” (Nat Commun, 2023).

SMILES strings stand for the structures.

In experiment [1] the target is T1, Muscarinic acetylcholine receptor M1 (Homo sapiens, UniProt P11229).
T1 sequence (P11229 whole entry): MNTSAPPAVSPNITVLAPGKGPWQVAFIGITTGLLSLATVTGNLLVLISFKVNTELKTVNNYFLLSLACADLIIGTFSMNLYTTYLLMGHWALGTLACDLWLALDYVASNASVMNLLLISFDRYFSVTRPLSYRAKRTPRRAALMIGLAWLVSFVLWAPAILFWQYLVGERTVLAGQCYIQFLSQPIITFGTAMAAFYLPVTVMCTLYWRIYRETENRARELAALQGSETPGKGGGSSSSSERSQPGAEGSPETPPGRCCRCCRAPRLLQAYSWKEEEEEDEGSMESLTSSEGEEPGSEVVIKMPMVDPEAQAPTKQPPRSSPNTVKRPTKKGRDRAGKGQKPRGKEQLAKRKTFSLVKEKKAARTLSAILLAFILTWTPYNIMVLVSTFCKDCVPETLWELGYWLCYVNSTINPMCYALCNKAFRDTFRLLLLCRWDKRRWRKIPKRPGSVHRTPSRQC
It is filed as functional, cell-based.

The target in experiment [2] is Vascular endothelial growth factor receptor 2 (Homo sapiens, UniProt P35968). Type of experiment: functional.
Sequence of Vascular endothelial growth factor receptor 2 (P35968 whole entry): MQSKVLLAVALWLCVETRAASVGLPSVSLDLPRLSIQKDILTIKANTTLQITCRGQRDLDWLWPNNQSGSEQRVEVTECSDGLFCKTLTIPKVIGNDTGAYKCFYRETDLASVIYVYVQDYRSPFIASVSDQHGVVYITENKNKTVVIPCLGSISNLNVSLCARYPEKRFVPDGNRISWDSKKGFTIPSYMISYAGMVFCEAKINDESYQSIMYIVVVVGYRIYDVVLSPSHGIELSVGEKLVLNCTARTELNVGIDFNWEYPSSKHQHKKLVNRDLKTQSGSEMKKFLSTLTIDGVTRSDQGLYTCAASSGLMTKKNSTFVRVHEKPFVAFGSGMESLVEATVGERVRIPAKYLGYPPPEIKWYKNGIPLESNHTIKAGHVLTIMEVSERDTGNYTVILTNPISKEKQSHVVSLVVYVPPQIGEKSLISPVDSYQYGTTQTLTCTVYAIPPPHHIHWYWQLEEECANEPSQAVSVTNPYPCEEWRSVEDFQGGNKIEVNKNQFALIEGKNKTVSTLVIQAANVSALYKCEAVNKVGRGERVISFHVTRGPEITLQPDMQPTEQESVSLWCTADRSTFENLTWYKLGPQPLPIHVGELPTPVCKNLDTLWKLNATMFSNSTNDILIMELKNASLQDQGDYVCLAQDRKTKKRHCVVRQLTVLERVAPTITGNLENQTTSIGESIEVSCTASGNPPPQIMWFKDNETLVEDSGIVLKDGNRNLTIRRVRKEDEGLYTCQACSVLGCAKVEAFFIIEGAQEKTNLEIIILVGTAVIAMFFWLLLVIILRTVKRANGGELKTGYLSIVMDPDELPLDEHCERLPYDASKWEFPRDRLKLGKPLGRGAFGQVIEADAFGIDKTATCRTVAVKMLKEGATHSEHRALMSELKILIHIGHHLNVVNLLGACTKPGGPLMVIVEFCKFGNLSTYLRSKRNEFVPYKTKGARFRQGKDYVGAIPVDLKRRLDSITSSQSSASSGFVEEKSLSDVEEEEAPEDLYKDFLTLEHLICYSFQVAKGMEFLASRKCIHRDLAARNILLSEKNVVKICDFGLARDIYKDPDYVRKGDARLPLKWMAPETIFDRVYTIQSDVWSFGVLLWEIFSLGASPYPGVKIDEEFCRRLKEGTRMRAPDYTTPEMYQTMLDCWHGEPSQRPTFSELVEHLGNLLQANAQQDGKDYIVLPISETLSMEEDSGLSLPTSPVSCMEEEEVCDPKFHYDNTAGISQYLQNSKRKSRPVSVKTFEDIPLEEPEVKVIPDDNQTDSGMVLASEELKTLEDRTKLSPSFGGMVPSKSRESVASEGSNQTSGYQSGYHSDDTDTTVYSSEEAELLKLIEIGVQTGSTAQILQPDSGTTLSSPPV
Experiment [3] has as its target Sodium-dependent serotonin transporter (Homo sapiens, UniProt P31645).
The target of experiment [4] is Adenosine receptor A2a (Homo sapiens, UniProt P29274).
Sequence of Adenosine receptor A2a (P29274 whole entry): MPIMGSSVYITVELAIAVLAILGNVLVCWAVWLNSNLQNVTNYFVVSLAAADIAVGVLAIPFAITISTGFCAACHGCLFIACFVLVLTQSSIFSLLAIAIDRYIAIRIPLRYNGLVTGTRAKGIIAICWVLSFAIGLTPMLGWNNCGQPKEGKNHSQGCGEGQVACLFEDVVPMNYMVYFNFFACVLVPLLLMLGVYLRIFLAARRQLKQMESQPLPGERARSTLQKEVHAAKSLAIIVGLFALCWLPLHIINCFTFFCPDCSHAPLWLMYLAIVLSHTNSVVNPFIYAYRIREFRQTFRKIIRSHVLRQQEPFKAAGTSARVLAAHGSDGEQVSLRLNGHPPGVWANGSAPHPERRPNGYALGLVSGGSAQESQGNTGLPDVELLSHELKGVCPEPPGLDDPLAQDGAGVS
Experiment [5] addresses T2, Alpha-2A adrenergic receptor (Homo sapiens, UniProt P08913).
T2 sequence (P08913 whole entry): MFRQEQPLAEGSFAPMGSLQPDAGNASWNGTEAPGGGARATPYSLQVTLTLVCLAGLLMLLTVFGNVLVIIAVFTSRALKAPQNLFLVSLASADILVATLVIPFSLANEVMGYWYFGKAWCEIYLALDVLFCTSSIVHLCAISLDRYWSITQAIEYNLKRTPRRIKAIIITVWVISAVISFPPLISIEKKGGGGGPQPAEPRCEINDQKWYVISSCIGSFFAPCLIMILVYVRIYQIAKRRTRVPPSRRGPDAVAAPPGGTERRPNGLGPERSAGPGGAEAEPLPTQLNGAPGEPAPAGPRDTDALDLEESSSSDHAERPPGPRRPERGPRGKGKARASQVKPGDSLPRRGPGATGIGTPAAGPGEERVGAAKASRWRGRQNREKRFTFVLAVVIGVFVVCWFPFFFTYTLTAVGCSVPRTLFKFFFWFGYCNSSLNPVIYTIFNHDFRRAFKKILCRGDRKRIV
It is filed as functional, cell-based.

The target of experiment [6] is Vasopressin V2 receptor (Homo sapiens, UniProt P30518).
Sequence of Vasopressin V2 receptor (P30518 whole entry): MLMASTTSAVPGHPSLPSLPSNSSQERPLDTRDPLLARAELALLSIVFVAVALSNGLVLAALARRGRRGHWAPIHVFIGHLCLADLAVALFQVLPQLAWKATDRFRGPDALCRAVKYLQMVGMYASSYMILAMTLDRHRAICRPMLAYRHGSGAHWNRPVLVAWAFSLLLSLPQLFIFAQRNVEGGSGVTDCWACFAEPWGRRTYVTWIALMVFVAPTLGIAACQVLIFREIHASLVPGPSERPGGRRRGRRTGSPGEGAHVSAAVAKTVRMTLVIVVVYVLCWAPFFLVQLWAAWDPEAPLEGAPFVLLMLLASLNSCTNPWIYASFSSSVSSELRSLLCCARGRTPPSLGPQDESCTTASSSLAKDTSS
Experiment [7] deals with T3, Gastrin/cholecystokinin type B receptor (Homo sapiens, UniProt P32239).
T3 sequence (P32239 whole entry): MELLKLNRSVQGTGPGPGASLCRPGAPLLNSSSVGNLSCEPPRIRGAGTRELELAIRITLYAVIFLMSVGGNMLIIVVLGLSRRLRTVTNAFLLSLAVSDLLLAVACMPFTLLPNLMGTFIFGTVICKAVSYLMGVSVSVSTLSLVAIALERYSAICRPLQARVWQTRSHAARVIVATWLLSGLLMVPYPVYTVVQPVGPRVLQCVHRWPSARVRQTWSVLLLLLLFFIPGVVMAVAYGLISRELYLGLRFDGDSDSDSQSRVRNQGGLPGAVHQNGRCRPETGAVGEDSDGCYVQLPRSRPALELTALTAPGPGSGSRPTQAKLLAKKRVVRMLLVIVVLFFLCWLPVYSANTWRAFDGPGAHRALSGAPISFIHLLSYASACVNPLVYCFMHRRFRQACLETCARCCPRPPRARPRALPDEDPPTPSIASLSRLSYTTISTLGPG

Experiment [8] deals with 5-hydroxytryptamine receptor 2B (Homo sapiens, UniProt P41595). It is filed as functional, cell-based.
Sequence of 5-hydroxytryptamine receptor 2B (P41595 whole entry): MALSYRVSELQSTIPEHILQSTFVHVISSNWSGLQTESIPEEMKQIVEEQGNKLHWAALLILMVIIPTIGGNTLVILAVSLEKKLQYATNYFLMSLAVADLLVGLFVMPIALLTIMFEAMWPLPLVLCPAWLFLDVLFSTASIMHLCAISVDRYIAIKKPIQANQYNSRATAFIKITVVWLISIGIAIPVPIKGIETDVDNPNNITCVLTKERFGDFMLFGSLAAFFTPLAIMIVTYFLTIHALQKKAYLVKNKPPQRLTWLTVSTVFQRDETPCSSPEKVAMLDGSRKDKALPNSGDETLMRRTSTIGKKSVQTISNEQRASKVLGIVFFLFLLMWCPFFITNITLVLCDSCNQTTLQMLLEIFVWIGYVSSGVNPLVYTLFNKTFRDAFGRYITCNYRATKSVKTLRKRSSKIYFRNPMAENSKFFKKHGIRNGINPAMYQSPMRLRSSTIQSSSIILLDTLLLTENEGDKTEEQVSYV
In experiment [9] the target is T4, Progesterone receptor (Homo sapiens, UniProt P06401).
T4 sequence (P06401 whole entry): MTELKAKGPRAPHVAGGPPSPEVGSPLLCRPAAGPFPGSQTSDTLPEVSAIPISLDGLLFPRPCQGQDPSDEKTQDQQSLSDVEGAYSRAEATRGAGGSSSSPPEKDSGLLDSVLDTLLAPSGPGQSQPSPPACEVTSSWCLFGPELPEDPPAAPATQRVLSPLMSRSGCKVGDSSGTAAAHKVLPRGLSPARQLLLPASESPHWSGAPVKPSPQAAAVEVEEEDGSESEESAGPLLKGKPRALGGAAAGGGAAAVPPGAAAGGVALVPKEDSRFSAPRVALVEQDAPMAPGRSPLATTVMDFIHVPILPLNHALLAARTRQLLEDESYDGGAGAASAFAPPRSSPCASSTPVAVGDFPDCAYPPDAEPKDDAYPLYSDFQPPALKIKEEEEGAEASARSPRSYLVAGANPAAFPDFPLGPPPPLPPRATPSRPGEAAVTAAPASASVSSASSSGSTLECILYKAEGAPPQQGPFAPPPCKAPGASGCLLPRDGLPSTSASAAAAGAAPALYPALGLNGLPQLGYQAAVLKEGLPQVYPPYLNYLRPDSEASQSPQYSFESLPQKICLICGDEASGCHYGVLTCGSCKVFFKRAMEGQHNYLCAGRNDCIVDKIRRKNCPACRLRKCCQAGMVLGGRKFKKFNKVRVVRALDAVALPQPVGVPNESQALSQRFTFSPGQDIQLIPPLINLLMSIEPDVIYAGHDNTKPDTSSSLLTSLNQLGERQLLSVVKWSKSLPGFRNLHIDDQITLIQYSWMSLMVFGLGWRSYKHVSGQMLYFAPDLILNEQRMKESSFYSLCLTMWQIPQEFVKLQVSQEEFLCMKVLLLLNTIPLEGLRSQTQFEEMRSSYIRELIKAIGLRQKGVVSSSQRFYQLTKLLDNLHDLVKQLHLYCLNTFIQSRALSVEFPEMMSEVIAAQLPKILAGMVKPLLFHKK
It is filed as functional.
Further: assay procedure not described here.

Sequence of Sodium-dependent serotonin transporter (P31645 whole entry): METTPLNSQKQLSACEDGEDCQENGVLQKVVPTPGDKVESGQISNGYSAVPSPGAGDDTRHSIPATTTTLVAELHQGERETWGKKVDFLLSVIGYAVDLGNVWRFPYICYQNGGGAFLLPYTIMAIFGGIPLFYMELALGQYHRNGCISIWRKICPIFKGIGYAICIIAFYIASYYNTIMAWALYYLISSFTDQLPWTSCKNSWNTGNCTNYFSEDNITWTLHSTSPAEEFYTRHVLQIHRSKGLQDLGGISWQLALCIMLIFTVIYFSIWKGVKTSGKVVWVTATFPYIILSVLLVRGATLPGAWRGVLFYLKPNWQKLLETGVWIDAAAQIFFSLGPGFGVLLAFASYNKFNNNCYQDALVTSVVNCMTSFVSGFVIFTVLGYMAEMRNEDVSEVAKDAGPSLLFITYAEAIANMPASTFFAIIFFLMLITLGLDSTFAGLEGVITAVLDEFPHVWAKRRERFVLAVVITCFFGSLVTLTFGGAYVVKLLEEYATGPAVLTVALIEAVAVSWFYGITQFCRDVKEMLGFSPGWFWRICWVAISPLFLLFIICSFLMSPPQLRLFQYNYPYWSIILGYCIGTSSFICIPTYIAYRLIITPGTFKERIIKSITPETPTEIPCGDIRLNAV

Regarding `COc1c2ccoc2cc2oc(=O)ccc12` [BERGAPTEN], the AC50 in experiment [1], in experiment [2] and in experiment [3] was over 30 µM each time.
With `OC[C@H]1O[C@@H](c2ccc(Cl)c(Cc3ccc(O[C@H]4CCOC4)cc3)c2)[C@H](O)[C@@H](O)[C@@H]1O` [EMPAGLIFLOZIN], the concentration at half-maximal activity (AC50) in [1], in experiment [2] and in experiment [3] was over 30 µM in each case.
Take `Cc1onc(-c2ccccc2)c1-c1ccc(S(N)(=O)=O)cc1` [VALDECOXIB]: the AC50 in experiment [4] is over 30 µM; in experiment [5], over 10 µM; in [6], over 30 µM; in experiment [7], over 30 µM; in experiment [8], over 10 µM; in [2] it was over 30 µM. In experiment [9], this compound displayed a half-maximal activity concentration (AC50) of over 30 µM.
On to `CNC(=O)Oc1cccc2ccccc12` [CARBARIL], for which the AC50 in experiment [1], in experiment [2] and in [3] was over 30 µM throughout.
The compound `N#Cc1ccc2c(c1)N(CCCN1CCC(O)CC1)c1ccccc1S2` [PERICIAZINE] came in with an AC50 in experiment [1] of over 30 µM.
For the compound `COc1cc2nccc(Oc3ccc(NC(=O)C4(C(=O)Nc5ccc(F)cc5)CC4)cc3)c2cc1OC` [CABOZANTINIB], the AC50 in experiment [4], in experiment [5], in experiment [1], in experiment [8] and in experiment [9] was over 30 µM throughout.
In turn, `CCOC(=O)c1c(C)cc2c(CO)n[nH]c(=O)c2c1C` [OXAGRELATE] had an AC50 in experiment [3] of over 30 µM.
On to `CCn1cc(C(=O)O)c(=O)c2cc3c(cc21)OCO3` [OXOLINIC ACID], for which the AC50 in experiment [1], in [2] and in experiment [3] was over 30 µM in each case.
Consider `Nc1ccc(C(=O)Oc2ccccc2)c(O)c1` [PHENYL AMINOSALICYLATE], for which the AC50 in experiment [1] is over 30 µM; in experiment [2], 23.2 µM; in experiment [3], over 30 µM.
As for `FC(F)(F)c1ccc(CNc2ccc(Cc3c[nH]c4ncc(Cl)cc34)cn2)cn1` [PEXIDARTINIB], the AC50 was over 30 µM in experiment [1], 0.131 µM in experiment [2] and 8 µM in experiment [3].
For `O=C1/C(=C2\Nc3ccc(S(=O)(=O)O)cc3C2=O)Nc2ccc(S(=O)(=O)O)cc21` [INDIGOTINDISULFONATE], the concentration at half-maximal activity (AC50) in experiment [1] was over 30 µM; in [2] it was 3.05 µM; in experiment [3], over 30 µM.
In experiment [3], `CC[C@@]1(O)C(=O)OCc2c1cc1n(c2=O)Cc2cc3c([N+](=O)[O-])cccc3nc2-1` [RUBITECAN] had an AC50 of over 30 µM.
For the compound `CCOC(=O)C1=C[C@@H](OC(CC)CC)[C@H](NC(C)=O)[C@@H](N)C1` [OSELTAMIVIR], the AC50 in experiment [1], in experiment [2] and in experiment [3] was over 30 µM in each case.
As to `Cc1onc(-c2ccccc2)c1C(=O)N[C@@H]1C(=O)N2[C@@H]1SC(C)(C)[C@@H]2C(=O)O` [OXACILLIN], the AC50 in experiment [1], in [2] and in [3] was over 30 µM in each case.
On to `O=C(O)c1cc(/N=N/c2ccc(O)c(C(=O)O)c2)ccc1O` [OLSALAZINE], for which the AC50 in [1] was over 30 µM; in [2], 12.3 µM; in [3], over 30 µM.
In the case of `CC[C@H](C)C[C@H](C)CCCCCCCCC(=O)N[C@H]1C[C@@H](O)[C@@H](NCCN)NC(=O)[C@@H]2[C@@H](O)CCN2C(=O)[C@H]([C@H](O)CCN)NC(=O)[C@H]([C@H](O)[C@@H](O)c2ccc(O)cc2)NC(=O)[C@@H]2C[C@@H](O)CN2C(=O)[C@H]([C@@H](C)O)NC1=O` [CASPOFUNGIN], the half-maximal activity concentration (AC50) was over 30 µM in experiment [1], over 10 µM in experiment [2] and over 30 µM in experiment [3].
Turning to `CN1CCC(=C2c3ccccc3Sc3ccccc32)CC1` [PIMETHIXENE], the AC50 in experiment [1] was over 30 µM; in experiment [2], over 30 µM; in [3], 18.3 µM.
For the compound `C=CCN1CC[C@]23CCCC[C@H]2[C@H]1Cc1ccc(O)cc13` [LEVALLORPHAN], the AC50 in experiment [1], in [2] and in [3] was over 30 µM in each case.
For the compound `CC(C)C[C@H](NC(=O)CNC(=O)c1cc(Cl)ccc1Cl)B(O)O` [IXAZOMIB], the AC50 in [1], in experiment [2] and in experiment [3] was over 30 µM in each case.
For the compound `[H]/N=C(\N/C(=N/[H])Nc1ccc(Cl)cc1)NC(C)C` [PROGUANIL], the figures for the concentration at half-maximal activity (AC50) in experiment [1], in experiment [2] and in [3] were over 30 µM, over 30 µM and 22.8 µM, respectively.
As for `OC[C@H]1O[C@@H](c2ccc(F)c(Cc3cc4ccccc4s3)c2)[C@H](O)[C@@H](O)[C@@H]1O` [IPRAGLIFLOZIN], the concentration at half-maximal activity (AC50) in [1] and in experiment [3] was over 30 µM each time.
For `CC(C)Cc1ccc(C(C)C(=O)O)cc1` (centres undefined) [IBUPROFEN], the AC50 in experiment [4] is over 30 µM; in experiment [5], over 10 µM; in [6], over 30 µM; in experiment [7], over 30 µM; in experiment [8], over 10 µM; in [2] it was over 30 µM.
Turning to `CN(CC1(C)CCCO1)S(=O)(=O)c1ccc(Cl)c(S(N)(=O)=O)c1` (centres undefined) [MEFRUSIDE], the AC50 in [5], in experiment [8] and in [3] was over 30 µM throughout.
Regarding `C#C[C@]1(O)CC[C@H]2[C@@H]3CCC4=CC(=O)CC[C@@H]4[C@H]3C(=C)C[C@@]21CC` [ETONOGESTREL], the AC50 in experiment [5], in experiment [8] and in [3] was over 30 µM each time.
`CCc1nc(C(N)=O)c(Nc2ccc(N3CCC(N4CCN(C)CC4)CC3)c(OC)c2)nc1NC1CCOCC1` [GILTERITINIB]: the AC50 in [1] and in experiment [3] was over 30 µM throughout.
Consider `CC(=O)O[C@]1(C(C)=O)CC[C@H]2[C@@H]3C=C(C)C4=CC(=O)CC[C@@H]4[C@H]3CC[C@@]21C` [NOMEGESTROL ACETATE], for which the AC50 in [4] was over 30 µM; in experiment [5], over 30 µM; in experiment [1], over 30 µM; in experiment [8], over 30 µM; in experiment [9], 0.028 µM; in [3], over 30 µM.
With `CCCN(CCC)C(=O)Cc1c(-c2ccc(Cl)cc2)nc2ccc(Cl)cn12` [ALPIDEM], the AC50 in experiment [4], in experiment [5], in [6], in experiment [7], in experiment [1] and in experiment [8] was over 30 µM in each case. Also, the AC50 in experiment [9] was over 30 µM.
